Consider 3 substances from US10463745B2, “Materials for tissue regeneration” (Northwestern University, priority 2015, dated 2019).

The subject of data set [1] is human dermal fibroblasts and human epithelial keratinocytes. The data set is described as follows: Self-assembled monolayer (SAM) cell adhesion assay. The note with it: HDFs and HEKas. The data set is classed as cell-based. The procedure:
Cysteine-terminated peptides were synthesized manually on Fmoc-Rink amide MHBA resin using a standard solid phase peptide synthesis protocol. They were purified using reverse-phase HPLC with a C18 column, and the final products were characterized by matrix-assisted laser desorption/ionization time of flight mass spectrometry (MALDI-TOF MS). Self-assembled monolayer cell adhesion assay was performed (ref 56; incorporated by reference in its entirety). Maleimide-terminated alkanethiol was self-assembled on the gold surfaces to form the well-organized monolayer. Known amount of characterized Cysteine-terminated peptides were dissolve in 0.1% trifluoroacetic acid solution and incubate with the surface to allow peptide absorption on the surface via thiol-maleimide reaction. The resulting surfaces were characterized by MALDI-TOF MS for peptide adsorption before being used for HDFs and HEKas adhesion studies. The adherent cells were counted 2 hours after the initial seeding. […]
The synthesized peptides were immobilized onto SAM chips by incubating the chips with 100 μM peptide solution in PBS at room temperature for 1 hr. […] Peptide chips were then mounted with Vectashield+DAPI and imaged on a Nikon Eclipse TE2000-U inverted fluorescence microscope. The number of cells per field of view was counted using ImageJ software. […]

Another data set has as its system db/db mice wound tissue. As to the kind of experiment: Histology and immunofluorescence of regenerated wound tissue. The data set is classed as in vivo, mouse. From the text: Upon full closure of the wounds (for the first batch study) or 10 days after the initial wound surgery (for the second batch study), animals were euthanized and the regenerated wound tissue was excised with a 10-mm biopsy punch (Acuderm, Fort Lauderdale, Fla.), fixed using 4% paraformaldehyde and embedded by paraffin. The tissues were then sectioned and processed for hematoxylin and eosin (H&E) staining to measure granulation tissue thickness, and the epithelial gap histomorphometrically. The granulation tissue thickness and epithelial gap was measured based on 5 different H&E images for each group by blinded observer using ImageJ. The tissue sections were also stained for Keratin 10, Integrin α3 or F4/80 (Santa Cruz, Dallas, Tex.) The secondary antibodies used were either conjugated to AlexaFluor488 or AlexaFluor555 (Invitrogen, Carlsbad, Calif.).

The test system of data set [2] is db/db mice full-thickness wound. The data set is described as follows: Diabetic splinted excisional wound healing model, wound closure. The data set is classed as in vivo, mouse. The procedure: To prevent skin contraction, paired pre-sterilized doughnut-shaped splints (10-mm inner diameter; 12-mm outer diameter) made from 0.5-mm-thick acrylate tape (3M, St. Paul, Minn.) were attached to the left and right dorsal sides of the mouse with Vetbond (3M) and interrupted 6-0 nylon sutures (Ethicon, Cincinnati, Ohio) after depilation. A 6-mm circular, full-thickness wound was made in the center of each splinted area. 40 μl of gel solution was applied to each wound bed. A transparent sterile occlusive dressing TegaDerm™ (3M) was then placed over the wound and the splint. Digital images of the wound area were taken every other day, and quantified in ImageJ by normalizing the wound area to the known splint area at each time point. Hydrogel dressings were reapplied on day 6, after gently rinsing the wound with cold 1× PBS.

Data set [3] deals with HDFs. The data set is described as follows: Cell cycle analysis by flow cytometry with propidium iodide. The data set is classed as cell-based, human. The settings on record: HDFs in gel. The procedure: A flow cytometric analysis, with propidium iodide (PI), was performed in order to measure the cell cycle activity. At each time point, cell encapsulated scaffolds were liquefied, and the cells were extracted via centrifuging. The cells were then washed with ice-cold PBS, and fixed with 70% ice-cold ethanol for 1 h before repeated washing with PBS and re-suspension in PBS with 0.5 mg/mL Rnase A (Thermo Fisher Scientific). After 1 h incubation, the cellular DNA was then stained with PI (50 μg/mL) for 20 min while protected from the light at 4° C. The relative DNA concentration of the stained cells was measured using a BD LSRII flow cytometer (Becton Dickinson, San Jose, Calif.).
In general terms: Flow cytometry measures light scatter and fluorescence of single cells or particles in a stream.

Data set [4] has as its system HDFs. The data set is described as follows: PicoGreen total DNA quantification (proliferation in 3D culture). The data set is classed as cell-based, human. The note with it: HDFs in gel, over the course of 10 days. The procedure:
HDF encapsulated hydrogel scaffold samples were prepared and cultured using the same method as the in vitro 3D cell culture with 10 K cells per 50 μl hydrogel per sample. At each time point, after removing the medium, the samples were cooled on ice, and the cells were lysed by PBS-3% Triton-X. The Quant-iT PicoGreen dsDNA assay kit (Life Technologies) was employed according to the manufacturer's protocol, and the results were read in triplicates. Samples of […] were accessed using microplate reader (Tecan, Männedorf, Switzerland); fluorescence was quantified at 520 nm with excitation at 480 nm.

For another data set, the system named is Human dermal fibroblasts. The data set is described as follows: In vitro 3D cell culture, live/dead stain, confocal imaging of cell spreading. The note with it: HDFs. The data set is classed as cell-based. The procedure: Cell culture medium (KGM-Gold for HEKa, DMEM+10% FBS for HDF) was then added to each well, and cells were cultured at 37° C. and 5% CO2. After 5 or 10 days, the gels were washed twice with warm 1×PBS, and stained with live/dead stain (2 uM calcein AM and 2 uM ethidium homodimer-1) at 37° C. for 15 min. The samples were then washed twice with warm 1×PBS and imaged on a Nikon C2 Confocal microscope.

Data set [5] relates to integrin α3 and α6 on HDFs. The data set is described as follows: Proliferation inhibition with anti-integrin α3 and α6 antibodies. It is filed as cell-based, human. The settings on record: 5 days. The procedure:
The mouse monoclonal antibody against human integrin α6 and α3 were purchased from Santa Cruz (Dallas, T A), and dialyzed with 10,000 MWCO Dialysis Cassettes dialysis cassette (Thermo Scientific) overnight to remove the sodium azide. […] Before cell encapsulation, HDFs were pre-incubated in suspension with corresponding anti-integrin antibodies (final concentration 10 μg/mL) for 15 min at 37° C. Then the pre-treated HDFs (1×10^4 cells per 50 μL scaffold per well) were incubated on the ultra-low attachment plate (Coring, Coring, NY) for 5 days at 37° C. in 5% CO2. Anti-integrin antibodies treatments were also added in the culture media for the corresponding groups (10 μg/mL), and the media was changed every other day. After 5 days of incubation, total DNA content within each scaffold was quantified using PicoGreen DNA quantification assay as mentioned above.

Groups on a side chain read outwards from the residue. No end group written: not given here. BMPH = maleimide-and-hydrazide crosslinker; PPCN hydrogel = not defined here

As for “A5G81: 12 amino acid laminin α5 globular domain derived peptide AGQWHRVSVRWG (listed as Mus musculus)”, the “cell adhesion on SAMs presenting the peptide” value in data set [1] is “excellent cell adhesion properties”.

As for “IP: inactive form of A5G81 (WHRVSVC), negative control (WHRVSVC-NH2) [reference compound]”, the “cell adhesion on SAMs presenting the peptide” value in data set [1] is on record as “very low cell adhesive properties”.

For “P-A5G81: PPCN hydrogel conjugated via BMPH linker to cysteine-terminated A5G81 peptide (AGQWHRVSVRWGC([BMPH-PPCN hydrogel])-NH2; reading uncertain; also: conjugated to PPCN hydrogel via BMPH linker at C-terminal Cys)”, the granulation tissue thickness entry in the data set on db/db mice wound tissue (by the time of closure, compared with PPCN, P-RGD and P-IP groups) was “significantly thicker”. Moreover, in the data set on db/db mice wound tissue (db/db mice, day 10, P-A5G81 side vs P-IP side), the “wound histology at day 10 within the same animal” value is “thick granulation tissue was already prominent”. Also, the “epidermal gap relative to that of the P-IP control wounds” value in the data set with db/db mice wound tissue (db/db mice, day 10, after two applications) is 25%. Further, in the data set with db/db mice wound tissue (db/db mice, day 30), the epithelial gap is 340 μm, the “integrin α3 positive cells in wound tissue” value is recorded as “significant amount of α3 positive cells” and the “wound opening relative to the initial wound size” value is “around 5%”. In addition, in the data set on db/db mice wound tissue (db/db mice, day 30, foreign body response), the “macrophage marker F4/80 staining” value is “minimum amount of macrophages”. Moreover, in the data set with db/db mice wound tissue (db/db mice, day 30, wound centre), the “Keratin 10 staining, epithelium structure” value is listed as “multi-layer epithelium structure”. Moreover, in data set [2], the “time to complete wound closure” value is on record as 21 days. The substance further showed a percent wound closure in data set [2] (day 10) of 45.3%. Also, in data set [2] (versus P-RGD), the “complete closure faster than P-RGD” value is listed as 3 days. For the same substance, the “complete closure faster than PPCN and P-IP” value in data set [2] (versus PPCN and P-IP) is “one week faster”. Moreover, in the data set on HDFs [3] (day 5), the S phase percentage turned out to be 21%. The substance further returned a S phase percentage in the data set on HDFs [3] (day 10) of 26.6%. Besides, the “cell proliferation rate (total DNA content)” value with HDFs [4] is given as “higher cell proliferation rate”. In the data set on Human dermal fibroblasts (day 5), the “cell spreading in 3D culture” value is given as “began to spread”. Moreover, in the data set on Human dermal fibroblasts (day 10), the “cell spreading in 3D culture” value was “fully elongated with typical fibroblast morphology”. Moreover, in data set [5] (both anti-α3 and anti-α6, 10 μg/mL), the “cell proliferation (total DNA) under complete blocking” value is listed as “close to the unfunctionalized PPCN scaffold”. In addition, the “cell proliferation (total DNA) under partial blocking” value in data set [5] (only anti-α3 or anti-α6, 10 μg/mL) is listed as “partial decrease of the cell proliferation”.
